{"source": "patent US12448400B2", "about": "“KRAS G12D modulating compounds” (priority 2023, dated 2025)", "data": [{"test_system": "GP2D (KRAS G12D) cells", "test": "2D cell viability assay (CellTiter-Glo)", "type": "cell-based", "conditions": "96 h; GP2D cells, 4 days, CellTiter-Glo luminescence; read-out: G12D 2D EC50", "procedure": "Example B. 2D Cell Viability Assay\nCompounds were tested in a 384-well format for their ability to inhibit the viability of GP2D (KRAS G12D) cells in 2D assays. Compounds were serially diluted (1:3) in DMSO. The LabCyte ECHO Acoustic dispenser system was used to pre-spot assay plates with 200 nL of test molecule per well. 1000 cells/well (40 μL volume per well) in RPMI medium with 10% FBS, and Penicillin-Streptomycin-Glutamine were plated in pre-spotted 384-well plates (Greiner, Catalog #781076) on the BioTEK EL406 liquid dispenser with a 5 μL dispensing cassette (BioTek 7170011). The plates were incubated at 37° C., 5% CO2 for 4 days before addition of CellTiter-Glo (CTG) reagent and measurement of luminescence signal. EC50 values were defined as the compound concentration that causes a 50% decrease in luminescence signal and were calculated using a sigmoidal dose-response model to generate curve fits.", "units": {"EC50": "nM"}, "values": [{"compound": "C#Cc1c(F)ccc2cc(O)cc(-c3c(F)c4c5c(nc(OC[C@]6(C)CN(C)CC[C@@H]6C(F)F)nc5c3F)N3C[C@H]5CC[C@@H]([C@H]3CCC4)N5Cc3oc(=O)oc3C)c12", "note": "(atropisomer, axis not shown; (aR)) [Example 78, 4-(((1S,4R,15aR)-8-(((3S,4S)-4-(difluoromethyl)-1,3-dimethylpiperidin-3-yl)methoxy)-11-((R)-8-ethynyl-7-fluoro-3-hydroxynaphthalen-1-yl)-10,12-difluoro-2,3,4,5,13,14,15,15a-octahydro-1H-1,4-epiminoazepino[1′,2′:1,8]azocino[2,3,4-de]quinazolin-16-yl)methyl)-5-methyl-1,3-dioxol-2-one]", "EC50": 0.08}, {"compound": "C#Cc1c(F)ccc2cc(OCc3oc(=O)oc3C(C)(C)C)cc(-c3nc4c5c(nc(OC[C@@]67CCCN6C[C@H](F)C7)nc5c3F)N3C[C@H]5CC[C@H](N5)[C@@H]3[C@@H](C)C4)c12", "note": "[Example 67, 4-(tert-butyl)-5-(((5-ethynyl-6-fluoro-4-((5S,5aS,6S,9R)-1-fluoro-12-(((2R,7aS)-2-fluorotetrahydro-1H-pyrrolizin-7a(5H)-yl)methoxy)-5-methyl-4,5,5a,6,7,8,9,10-octahydro-3,10a,11,13,14-pentaaza-6,9-methanonaphtho[1,8-ab]heptalen-2-yl)naphthalen-2-yl)oxy)methyl)-1,3-dioxol-2-one]", "EC50": 1.3}, {"compound": "CCc1c(F)ccc2cc(O)cc(-c3c(F)c4c5c(nc(OC[C@@]67CCCN6C[C@H](F)C7)nc5c3F)N3C[C@H]5CC[C@H](N5)[C@H]3CCC4)c12", "note": "(atropisomer, axis not shown; (aR)) [Example 77-P, 4-((1S,4R,11R,15aR)-10,12-difluoro-8-(((2R,7aS)-2-fluorotetrahydro-1H-pyrrolizin-7a(5H)-yl)methoxy)-2,3,4,5,13,14,15,15a-octahydro-1H-1,4-epiminoazepino[1′,2′:1,8]azocino[2,3,4-de]quinazolin-11-yl)-5-ethyl-6-fluoronaphthalen-2-ol]", "EC50": 0.29}, {"compound": "C#Cc1c(F)ccc2cccc(-c3nc4c5c(nc(OC[C@@]67CCCN6C[C@H](F)C7)nc5c3F)N3C[C@H]5CC[C@@H]([C@H]3CCC4)N5Cc3oc(=O)oc3CCCCC)c12", "note": "[Example 20, 4-(((6aR,7S,10R)-2-(8-ethynyl-7-fluoronaphthalen-1-yl)-1-fluoro-13-(((2R,7aS)-2-fluorotetrahydro-1H-pyrrolizin-7a(5H)-yl)methoxy)-5,6,6a,7,8,9,10,11-octahydro-4H-3,11a,12,14,15-pentaaza-7,10-methanocyclohepta[4,5]cycloocta[1,2,3-de]naphthalen-15-yl)methyl)-5-pentyl-1,3-dioxol-2-one]", "EC50": 5}, {"compound": "C#Cc1c(F)ccc2cc(O)cc(-c3nc4c5c(nc(OC[C@@]67CCCN6C[C@H](F)C7)nc5c3F)N3C[C@H]5CC[C@@H]([C@H]3CCC4)N5Cc3oc(=O)oc3CCC)c12", "note": "[Example 41, 4-(((6aR,7S,10R)-2-(8-ethynyl-7-fluoro-3-hydroxynaphthalen-1-yl)-1-fluoro-13-(((2R,7aS)-2-fluorotetrahydro-1H-pyrrolizin-7a(5H)-yl)methoxy)-5,6,6a,7,8,9,10,11-octahydro-4H-3,11a,12,14,15-pentaaza-7,10-methanocyclohepta[4,5]cycloocta[1,2,3-de]naphthalen-15-yl)methyl)-5-propyl-1,3-dioxol-2-one]", "EC50": 0.18}, {"compound": "C#Cc1c(F)ccc2cc(OC(=O)O[C@@H](C)C(C)C)cc(-c3nc4c5c(nc(OC[C@@]67CCCN6C[C@H](F)C7)nc5c3F)N3C[C@H]5CC[C@@H]([C@H]3CCC4)N5Cc3oc(=O)oc3C)c12", "note": "[Example 39, 5-ethynyl-6-fluoro-4-((6aR,7S,10R)-1-fluoro-13-(((2R,7aS)-2-fluorotetrahydro-1H-pyrrolizin-7a(5H)-yl)methoxy)-15-((5-methyl-2-oxo-1,3-dioxol-4-yl)methyl)-5,6,6a,7,8,9,10,11-octahydro-4H-3,11a,12,14,15-pentaaza-7,10-methanocyclohepta[4,5]cycloocta[1,2,3-de]naphthalen-2-yl)naphthalen-2-yl ((S)-3-methylbutan-2-yl) carbonate]", "EC50": 0.26}]}]}
